US8455440B2, “Combination anticoagulant therapy with a compound that acts as a factor Xa inhibitor” (Millennium Pharmaceuticals, Inc., priority 2007, dated 2013)
“And” between values parts separate entries of the source, which are not always exact repeats. Identical values can stand only once. Marks after values point to notes of the source that are not given here.

Key:
cytokine release = assay: Ex vivo assay of human cytokine release in collagen activated whole blood; type: cell-based; settings: Compound A single treatment (50 to 500 nM), blood of healthy untreated donors, collagen 4 μg/mL
Method: (§1) An ex vivo assay system of human cytokine release was used to test whether inhibition of factor Xa should augment the effect of reduction of inflammation elicited by standard anti-inflammatory drugs, such as aspirin.
(§2) Following addition of Compound A (50 to 500 nM) to the blood samples, control and treated samples were activated by addition of collagen (Chronolog, 4 μg/mL) and gently rotated at 37° C. for 45 min. At the end of the activation period, blood samples were centrifuged at 13,000 rpm (15,000 g) for 5 min in an Eppendorf 5415G centrifuge. Plasma was removed, treated with protease inhibitor cocktail (Roche) and stored frozen at −80° C. Cytokines released from the blood cells were quantitated in a Multiplexed Biomarker Immunoassay for Luminex Instrumentation (Millipore USA). […] For example, in the plasma samples from six donors, the mean amount of interleukin 4 was 28.4 pg/mL in the untreated control and 26.8 to 29.4 pg/mL in the Compound A treated samples. […] Thus in this ex vivo system Compound A was capable of providing additional beneficial effect over a widely used anti-inflammatory agent.

[1] = system: ADP induced platelet aggregation; assay: Ex vivo platelet aggregation induced by 10 μM ADP; type: in vivo; settings: Rattus norvegicus, read-out: % inhibition of platelet aggregation
Method: In this experiment, the ability of Compound A to maintain vessel patency under arterial flow conditions in ferric chloride induced thrombosis in rat carotid artery is compared to that achieved by clopidogrel. Compound A was administered by intravenous infusions and clopidogrel was dosed orally for three days. Ex vivo platelet aggregation induced by 10 μM ADP and clotting times (prothrombin time, PT and activated partial thromboplastin times, aPTT) were measured over the experimental time course (90 min) in all animals.
This level of platelet inhibition is approximately equivalent to that attained by clopidogrel's effect on human platelets at the therapeutic dose in clinical use (75 mg per day). […] Time to occlusion was measured in animals that had vessel occlusion.

[2] = system: systolic and diastolic blood pressure; assay: Telemetry blood pressure in conscious beagle dogs, three way crossover; type: in vivo
Method: The study design was a three way crossover with one week between doses to ensure complete elimination of residual agents from the dogs' circulatory system. […] Data acquisition and analysis was performed using LDS Life Science Suite Ponemah P3 plus V 4.20 software with results reported as 10 minute averages for each animal.
AUC was derived from the systolic and diastolic baseline. […] Negative values represent a decrease in blood pressure relative to the baseline value.

Rhesus Monkeys = assay: Template bleed times in rhesus monkeys; type: in vivo, rhesus monkey; settings: for Template Bleed Times / Template Bleed Times, Mean of all times / Template Bleed Times, Mean per animal / Template Bleed Times, Mean for time points 1-24 hr (post-Compound A dosing): in min (unit assumed); for Template Bleed Times, Mean of animals: mean of two animals; for Template Bleed Times, Mean of all times: all times (0-24 hr)
From the text: Injectable heparins are often dose limited by their bleeding consequences which result in a narrow therapeutic window for treatment effects.

Interleukin 6 = assay: Ex vivo cytokine release in human whole blood: interleukin 6; type: cell-based; settings: for fold change of Interleukin 6 release: combination with Aspirin (0 nM = 1)
Method: as §1, §2

[3] = system: Thrombosis on mouse mesenteric arteries; assay: FeCl3 thrombosis on mouse mesenteric arteries; type: in vivo, mice; settings: for Mean time to occlusion: P2Y12^+/− mice, 10 mg/kg
From the text: Commonly used P2Y12 antagonists such as clopidogrel are prescribed at doses that block 40-50% of the P2Y12 receptors on platelets of treated patients. It has been shown that P2Y12^+/− mice which express ˜50% of the receptor on their platelets compared to wild type control (P2Y12^+/+), display an intermediate thrombosis phenotype between wild type and mice completely deficient in P2Y12 (P2Y12^−/−). (Andre, P., et al., J Clin Invest, 2003. 112(3):398-406). P2Y12 regulates platelet adhesion/activation, thrombus growth, and thrombus stability in injured arteries. The effect of Compound A was studied in a thrombosis model with P2Y12^+/− mice to effectively mimic the combination of dual dosing of factor Xa inhibitor and P2Y12 antagonist in humans.
Thrombosis on mouse mesenteric arteries (shear rate 1000-1300 s^−1) was performed and recorded as previously described (Andre, P., et al., J Clin Invest, 2003. 112(3):398-406). Platelets were labeled in situ using rhodamine 6G (0.2 mg/mL) and administered through the tail vein 10 min before visualization of the arteries. Vessel-wall injury was triggered by a 1×1-mm filter paper saturated with a 10% FeCl3 solution. After 5 minutes, the filter paper was removed and mesenteric arteries rinsed with warmed saline (37° C.). Platelet vessel-wall interactions were recorded for 40 additional minutes or until full occlusion occurred and persisted for more than 40 seconds. C57Bl6J mice (wild type control or P2Y12^+/−) were orally gavaged with vehicle control, compound A (2, 4, 10 mg/kg) two hours prior to vascular injury. Thrombosis was analyzed in real time using Simple PCI software. The fluorescence intensity was recorded at a rate of 2 Hz for 40 minutes and plotted over time. Time to occlusion (cessation of blood flow) was analyzed. Plasma concentrations of Compound A were determined on blood collected 2 min post-occlusion or 42 min after start of vascular injury.

[4] = Dog # 1, oral, Compound A 3 mg/kg, verapamil 10 mg/kg
[5] = Dog # 2, oral, Compound A 3 mg/kg, verapamil 10 mg/kg
[6] = Dog # 3, oral, Compound A 3 mg/kg, verapamil 10 mg/kg
[7] = three dogs, oral, Compound A 3 mg/kg, verapamil 10 mg/kg
[8] = wild type mice, 10 mg/kg oral gavage

With `COc1ccc(NC(=O)c2ccc(C(=N)N(C)C)cc2)c(C(=O)Nc2ccc(Cl)cn2)c1` [Compound A, [2-({4-[(dimethylamino)iminomethyl]phenyl}carbonylamino)-5-methoxyphenyl]-N-(5-chloro(2-pyridyl))carboxamide] the “inhibition of cytokine release” value (cytokine release) was “did not produce statistically significant inhibition of cytokine release”, the inhibition at 0.03 µM [1] was -2% and the inhibition at 0.1 µM [1] was 4%. The inhibition at 0.3 µM [1] was 0.8%, the “diastolic blood pressure (DBP) compared to pre-dose values” ([2]; Compound A 3 mg/kg as a single agent, oral) was “no statistical differences” and the “Lowest Diastolic Blood Pressure Post-Dosing” value [2, 4] was 92.57 mmHg. The “Lowest Systolic Blood Pressure Post-Dosing” value [2, 4] was 150.32 mmHg, the “Lowest Diastolic Blood Pressure Post-Dosing” value [2, 5] was 83.73 mmHg and the “Lowest Systolic Blood Pressure Post-Dosing” value [2, 5] was 121.08 mmHg. The “Lowest Diastolic Blood Pressure Post-Dosing” value [2, 6] was 80.52 mmHg, the “Lowest Systolic Blood Pressure Post-Dosing” value [2, 6] was 101.93 mmHg and the “Mean Area Under the Curve for Systolic Pressure (AUCP), Mean ± S.D.” value ([2]; following verapamil or placebo administration ([…]), relative to baseline) was 782.7 ± 1297.8 mmHg * min. For the same compound, the “measures of blood pressure upon coadministration with verapamil” value ([2]; telemeterized dogs) was “did not change the measures of blood pressure”, the “Lowest Diastolic Blood Pressure Post-Dosing, Mean ± S.D.” value [2, 7] was 85.60 ± 6.24 mmHg and the “Lowest Systolic Blood Pressure Post-Dosing, Mean ± S.D.” value [2, 7] was 124.44 ± 24.37 mmHg. The “Template Bleed Times” value (Rhesus Monkeys; 4.0 mg/kg, 1 hr, individual animals (Rhesus # 30675, 30973)) was 1.50 and 3.75, the Template Bleed Times, Mean of animals (Rhesus Monkeys; 4.0 mg/kg, 1 hr) was 2.63 min and the “Template Bleed Times” value (Rhesus Monkeys; 4.0 mg/kg, 2 hr, individual animals (Rhesus # 30675, 30973)) was 1.50. The Template Bleed Times, Mean of animals (Rhesus Monkeys; 4.0 mg/kg, 2 hr) was 1.5 min, the “Template Bleed Times” value (Rhesus Monkeys; 4.0 mg/kg, 3 hr, individual animals (Rhesus # 30675, 30973)) was 1.50 and the Template Bleed Times, Mean of animals (Rhesus Monkeys; 4.0 mg/kg, 3 hr) was 1.5 min. The “Template Bleed Times” value (Rhesus Monkeys; 4.0 mg/kg, 8 hr, individual animals (Rhesus # 30675, 30973)) was 2.00, the Template Bleed Times, Mean of animals (Rhesus Monkeys; 4.0 mg/kg, 8 hr) was 2 min and the “Template Bleed Times” value (Rhesus Monkeys; 4.0 mg/kg, 24 hr, individual animals (Rhesus # 30675, 30973)) was 2.50. The Template Bleed Times, Mean of animals (Rhesus Monkeys; 4.0 mg/kg, 24 hr) was 2.5 min, the “Template Bleed Times, Mean of all times” value (Rhesus Monkeys; 4.0 mg/kg) was 1.98* and the “Template Bleed Times, Mean per animal” value (Rhesus Monkeys; 4.0 mg/kg, mean over time points of each animal (Rhesus # 30675, 30973)) was 1.80 and 2.25. The “Template Bleed Times, Mean for time points 1-24 hr (post-Compound A dosing)” value (Rhesus Monkeys; 4.0 mg/kg) was 2.03**, the “Template Bleed Times” value (Rhesus Monkeys; 7.5 mg/kg, 1 hr, individual animals (Rhesus # 25285, 27678)) was 3.00 and 2.00 and the Template Bleed Times, Mean of animals (Rhesus Monkeys; 7.5 mg/kg, 1 hr) was 2.5 min. The “Template Bleed Times” value (Rhesus Monkeys; 7.5 mg/kg, 2 hr, individual animals (Rhesus # 25285, 27678)) was 2.50 and 1.75, the Template Bleed Times, Mean of animals (Rhesus Monkeys; 7.5 mg/kg, 2 hr) was 2.13 min and the “Template Bleed Times” value (Rhesus Monkeys; 7.5 mg/kg, 3 hr, individual animals (Rhesus # 25285, 27678)) was 2.50 and 2.00. For the same compound, the Template Bleed Times, Mean of animals (Rhesus Monkeys; 7.5 mg/kg, 3 hr) was 2.25 min, the “Template Bleed Times” value (Rhesus Monkeys; 7.5 mg/kg, 8 hr, individual animals (Rhesus # 25285, 27678)) was 4.00 and 2.50 and the Template Bleed Times, Mean of animals (Rhesus Monkeys; 7.5 mg/kg, 8 hr) was 3.25 min. The “Template Bleed Times” value (Rhesus Monkeys; 7.5 mg/kg, 24 hr, individual animals (Rhesus # 25285, 27678)) was 2.50, the Template Bleed Times, Mean of animals (Rhesus Monkeys; 7.5 mg/kg, 24 hr) was 2.5 min and the “Template Bleed Times, Mean of all times” value (Rhesus Monkeys; 7.5 mg/kg) was 2.50*. The “Template Bleed Times, Mean per animal” value (Rhesus Monkeys; 7.5 mg/kg, mean over time points of each animal (Rhesus # 25285, 27678)) was 2.90 and 2.15, the “Template Bleed Times, Mean for time points 1-24 hr (post-Compound A dosing)” value (Rhesus Monkeys; 7.5 mg/kg) was 2.53** and the bleeding times (Rhesus Monkeys; supra-therapeutic doses (7 to 35 times greater than the 0.21 mg/kg to 0.57 mg/kg human therapeutic doses)) was “did not extend of bleeding times”. For the same compound, the “bleeding time in monkeys” value (Rhesus Monkeys; therapeutic levels, plasma concentrations between 5 to 25 ng/mL) was “did not cause extension of bleeding”, the “fold change of Interleukin 6 release” value (Interleukin 6; 50 nM Compound A) was 1.01 and the “fold change of Interleukin 6 release” value (Interleukin 6; 200 nM Compound A) was 0.96. For the same compound, the “fold change of Interleukin 6 release” value (Interleukin 6; 500 nM Compound A) was 0.87, the “reduction in the levels of released interleukin 6” value (Interleukin 6; Compound A added to blood samples from donors under aspirin therapy) was 25% and the “further reduction of interleukin 6” value (Interleukin 6; addition of Compound A to whole blood of aspirin treated donors prior to collagen activation) was 16%. For the same compound, the “plasma concentration sufficient to prevent vascular occlusion” value ([3]; P2Y12^+/− animals) was “more than 76 ng/mL”, the time to occlusion ([3]; P2Y12^+/− mice with Compound A (756.7 seconds without)) was “over 2100 seconds” and the “Mean time to occlusion” value ([3]; Experiment 1) was 2143 s. For the same compound, the “Mean time to occlusion” value ([3]; Experiment 2) was 2399 s, the “Mean time to occlusion” value ([3]; Experiment 3) was 2305 s and the “circulating plasma concentration that prevented vascular occlusion” value ([3]; wild type animals) was “more than 1000 ng/mL”. For the same compound, the “time for appearance of first thrombus” value [3, 8] was “significantly delayed”, the time to occlusion [3, 8] was “significantly delayed” and the antithrombotic effect ([3]; wild type mice, 2 and 4 mg/kg oral gavage two hours prior to injury) was “non-effective”.
